Assay results reported in patent publication US20200115314A1, “METHOD OF PRODUCING PLASTICIZER AND REDUCING ENERGY CONSUMPTION” (SABIC Global Technologies B.V., priority 2017, published 2020).

Assays:
Type in all cases: physicochemical
[1] = Repeated solubility test for trimellitic anhydride in 2-ethyl hexanol
Protocol: The temperature range for complete dissolution of trimellitic anhydride was further repeated by varying the temperature in a range of 110° C. to 149° C. when the molar ratio of trimellitic anhydride to 2-ethyl hexanol was kept at 1:3.25. About 100 g of trimellitic anhydride was used. When a complete dissolution of trimellitic anhydride was observed, the amount of water formed during the dissolution and total time consumed for dissolution are recorded.

[2] = Solubility tests for trimellitic anhydride in 2-ethyl hexanol
Protocol: Tri octyl trimellitate (TOTM) is one of the most commonly used non-phthalate based plasticizers. Tri octyl trimellitate is produced via esterification reaction between trimellitic anhydride (TMA) and 2-ethyl hexanol (2-EH). According to embodiments of the invention, trimellitic anhydride may be dissolved in 2-ethyl hexanol before it is transferred to an esterification reactor. Thus, the solubility of trimellitic anhydride in 2-ethyl hexanol was tested under various molar ratios of trimellitic anhydride to 2-ethyl hexanol. In this experiment, a hundred grams of trimellitic anhydride was initially added to 2-ethyl hexanol at a molar ratio of 1:1 to form a mixture. The temperature of the mixture was controlled in a range of 110° C. to 150 ° C. Additional 2-ethyl hexanol was gradually added to the mixture to change the molar ratio of trimellitic anhydride to 2-ethyl hexanol until complete dissolution of trimellitic anhydride in 2-ethyl hexanol was observed. The amount of added 2-ethyl hexanol was recorded to obtain a molar ratio needed for the complete dissolution of trimellitic anhydride.

[3] = as above; remark: listed apart in the source

Time for complete dissolution ([1]; about 149 °C, molar ratio about 1:3.25): 20 to 30 min
Dissolution ([1]; in 2-ethyl hexanol, TMA:2-EH molar ratio 1:3.25, 110-149 °C): Yes
Temperature at which the mixture becomes milky ([1]; on cooling, molar ratio 1:3.25): 60 °C
Temperature at which turbidity starts forming in the solution ([1]; on cooling, molar ratio 1:3.25): 65 °C
Dissolution ([2]; TMA:2-EH molar ratio 1:1, 110-150 °C): No
Dissolution ([2]; TMA:2-EH molar ratio 1:2, 110-150 °C): No
Dissolution ([2]; TMA:2-EH molar ratio 1:2.5, 110-150 °C): No
Dissolution ([2]; TMA:2-EH molar ratio 1:3, 110-150 °C): No
Dissolution ([2]; TMA:2-EH molar ratio 1:3.25, 110-150 °C): Yes
Temperature at which water formation starts ([3]; TMA:2-EH molar ratio 1:1, no catalyst): at 135 °C
Temperature at which water formation starts ([3]; TMA:2-EH molar ratio 1:2, no catalyst): at 135 °C
Temperature at which water formation starts ([3]; TMA:2-EH molar ratio 1:2.5, no catalyst): at 135 °C
Temperature at which water formation starts ([3]; TMA:2-EH molar ratio 1:3, no catalyst): at 135 °C
Temperature at which water formation started ([3]; at each molar ratio, without catalysts): 135 °C
Compound: O=C(O)c1ccc2c(c1)C(=O)OC2=O [trimellitic anhydride]
